Measured values published in ChEMBL document CHEMBL4052598, “Discovery of C-Glycosylpyranonaphthoquinones in Streptomyces sp. MBT76 by a Combined NMR-Based Metabolomics and Bioinformatics Workflow” (2017).
Calls of active or inactive are those of the source. The rule behind the calls is not given here.

What was measured:
Assay type in all cases: functional
Bacillus subtilis = assay: Antimicrobial activity against Bacillus subtilis subsp. subtilis str. 168 assessed as growth inhibition zone after 18 hrs by disc diffusion method
Escherichia coli = assay: Antimicrobial activity against Escherichia coli JM109 assessed as growth inhibition zone after 18 hrs by disc diffusion method
Staphylococcus aureus = assay: Antimicrobial activity against Staphylococcus aureus CECT976 assessed as growth inhibition zone after 18 hrs by disc diffusion method
Pseudomonas aeruginosa = assay: Antimicrobial activity against Pseudomonas aeruginosa PAO1 assessed as growth inhibition zone after 18 hrs by disc diffusion method

Structure (SMILES) | inhibition (Bacillus subtilis) | inhibition (Escherichia coli) | inhibition (Staphylococcus aureus) | inhibition (Pseudomonas aeruginosa) | inhibition zone (IZ) (Bacillus subtilis) | inhibition zone (IZ) (Escherichia coli) | inhibition zone (IZ) (Staphylococcus aureus) | inhibition zone (IZ) (Pseudomonas aeruginosa)
CN[C@H]1CC[C@H](c2ccc(O)c3c2C(=O)C24OC2([C@@H](C)O[C@@H]2CC(=O)O[C@@H]24)[C@H]3O)O[C@@H]1C (stereo partly specified) | Active | inactive | Active | inactive |  |  |  | 
CN[C@H]1CC[C@H](c2ccc(O)c3c2C(=O)C24OC2([C@@H](C)O[C@H](CC(=O)O)[C@@H]4O)[C@H]3O)O[C@@H]1C (stereo partly specified) | Active | inactive | Active | inactive |  |  |  | 
CC1(C)S[C@@H]2[C@H](NC(=O)[C@H](N)c3ccccc3)C(=O)N2[C@H]1C(=O)O [AMPICILLIN] |  |  |  |  | 23 mm | 20 mm | 10 mm | 7 mm
CN[C@@H]1[C@@H](O[C@H]2O[C@H](CO)[C@@H](N)[C@H](O)[C@H]2O)OC2C[C@@H](N)[C@@H](O[C@H]3[C@H](O)[C@@H](O)[C@H](N)C[C@@H]3N)OC2[C@@H]1O (stereo partly specified) [APRAMYCIN] |  |  |  |  | 10 mm | 7 mm | 7 mm | 15 mm
